Measured values as given in paper PMC2974002 (Journal of medicinal chemistry, 2010).
Like-named read-outs stand apart in the source and are kept apart here.

Tests used:
[1] = tested on: L1210 murine leukemia cells; format: in vivo, DBA/2J mice; settings: i.p. on days 1, 5 and 9; for antitumor activity (in words): compared with free drug 11
[2] = Stability in pH 7.0 phosphate buffer; format: physicochemical; settings: 72 h
[3] = Thiol cleavage of prodrugs with BnSH; format: physicochemical
L1210 cells = assay: Cell growth inhibition in a cytotoxic assay with L1210 cells; format: cell-based, murine; settings: for decrease in cytotoxic potency relative to 5: ratio to 5
[4] = Stability to BnSH without soluble base; format: physicochemical; settings: for stability to treatment with BnSH: BnSH in THF (72 h, 23 °C) or MeOH (72 h, 23 °C)
[5] = clean release of 11; cited from earlier work
DNA = settings: cell free systems; cited from earlier work

| Molecule | antitumor activity (in words) [1] | cleavage in pH 7.0 phosphate buffer [2] | half-life [3] [h] | decrease in cytotoxic potency relative to 5 (L1210 cells) | stability to treatment with BnSH [4] | dose of maximal effect ([1]; dose range 10–100 μg/kg) [mg/kg] | IC50 (L1210 cells) [nM] | potency of natural (1S)-enantiomer relative to unnatural (1R)-enantiomer (L1210 cells) | half-life ([3]; BnSH (100 equiv) and NaHCO3 (100 equiv) in MeOH) [h] | half-life in human plasma (t1/2) [5] [h] | DNA alkylation (DNA) | cleavage by BnSH ([4]; under all conditions examined) |
| --- | --- | --- | --- | --- | --- | --- | --- | --- | --- | --- | --- | --- |
| NC(=O)NOc1cc2c(c3ccccc13)C(CCl)CN2C(=O)c1cc2cc(NC(=O)c3cc4ccccc4[nH]3)ccc2[nH]1 (centres unmarked) [compound 3, N-(2-(1-(Chloromethyl)-5-(ureidooxy)-2,3-dihydro-1H-benzo[e]indole-3-carbonyl)-1H-indol-5-yl)-1H-indole-2-carboxamide] | active, albeit only at higher doses | no significant cleavage | 35 | ten times | stable |  |  |  |  |  |  |  |
| seco-CBI-indole2 [compound 11, reference compound] |  |  |  |  |  | 0.06 | 0.03 | ca. 30 fold |  |  |  |  |
| CC(C)(C)OC(=O)NOc1cc2c(c3ccccc13)C(CCl)CN2C(=O)c1cc2cc(NC(=O)c3cc4ccccc4[nH]3)ccc2[nH]1 (centres unmarked) [compound 5, tert-Butyl(3-(5-(1H-indole-2-carboxamido)-1H-indole-2-carbonyl)-1-(chloromethyl)-2,3-dihydro-1H-benzo[e]indol-5-yl)oxycarbamate] | matched or exceeded the efficacy of the free drug 11 at each dose | no significant cleavage |  |  | stable |  |  |  | 6 | 3 to 6 | incapable of alkylating DNA |  |
| CC(C)(C)C(=O)NOc1cc2c(c3ccccc13)C(CCl)CN2C(=O)c1cc2cc(NC(=O)c3cc4ccccc4[nH]3)ccc2[nH]1 (centres unmarked) [compound 6, N-(2-(1-(Chloromethyl)-5-(pivalamidooxy)-2,3-dihydro-1H-benzo[e]indole-3-carbonyl)-1H-indol-5-yl)-1H-indole-2-carboxamide] |  | completely cleaved | < 0.5 |  |  |  |  |  |  |  |  | rapidly cleaved |
| CN(Oc1cc2c(c3ccccc13)C(CCl)CN2C(=O)c1cc2cc(NC(=O)c3cc4ccccc4[nH]3)ccc2[nH]1)C(=O)OC(C)(C)C (centres unmarked) [compound 8, tert-Butyl(3-(5-(1H-indole-2-carboxamido)-1H-indole-2-carbonyl)-1-(chloromethyl)-2,3-dihydro-1H-benzo[e]indol-5-yl)oxy(methyl)carbamate] |  | no significant cleavage | 48 | nine-fold | stable |  |  |  |  |  |  |  |
| COC(=O)NOc1cc2c(c3ccccc13)C(CCl)CN2C(=O)c1cc2cc(NC(=O)c3cc4ccccc4[nH]3)ccc2[nH]1 (centres unmarked) [compound 4, Methyl(3-(5-(1H-indole-2-carboxamido)-1H-indole-2-carbonyl)-1-(chloromethyl)-2,3-dihydro-1H-benzo[e]indol-5-yl)oxycarbamate] | active, albeit only at higher doses | no significant cleavage | 10 | five times | stable |  |  |  |  |  |  |  |
